According to BindingDB's records for patent US20240109893 (Shanghai Kechow Pharma, 2024):

Target: GTPase KRas [G12C] (Homo sapiens, UniProt P01116, G12C)
Assay: KRAS G12C-GDP Exchange Assay
Description: 1. […] 2. […] The IC50 (median inhibitory concentration) of the compound was obtained by the following non-linear fitting formula: Y=Bottom+(Top−Bottom)/(1+10^((Log IC50−X)*Hill Slope)), and the data were analyzed by Graphpad 6-0 software.

Chain of GTPase KRas [G12C] (P01116 whole entry G12C): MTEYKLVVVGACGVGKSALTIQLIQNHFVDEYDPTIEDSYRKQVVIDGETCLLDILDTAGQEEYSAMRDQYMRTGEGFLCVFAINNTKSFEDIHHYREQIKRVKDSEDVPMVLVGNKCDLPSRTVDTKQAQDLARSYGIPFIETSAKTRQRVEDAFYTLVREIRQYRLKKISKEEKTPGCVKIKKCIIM

## C=CC(=O)N1CCN(c2nc(OC[C@@H]3CCCN3C)nc3cc(-c4cccc5cccc(Cl)c45)c(F)cc23)C[C@@H]1CC#N [US20240109893, Example 394]
  IC50: 1.44 nM
